Assay results taken from publication PMC6658782, “The Novel Arylamidine T-2307 Selectively Disrupts Yeast Mitochondrial Function by Inhibiting Respiratory Chain Complexes” (Antimicrobial Agents and Chemotherapy, 2019).
Values joined by “and” are separate entries in the source; they are usually repeats but may differ in a detail not shown here. Equal values may be shown once.

Tests used:
whole yeast cells = test: Oxygen consumption of whole yeast cells (oxygen electrode); assay type: cell-based, Saccharomyces cerevisiae
[1] = test system: isolated yeast mitochondria; test: Mitochondrial oxygen consumption (MitoXpress probe); assay type: biochemical, Saccharomyces cerevisiae
Protocol: S. cerevisiae from frozen stock (−80°C) was inoculated into yeast extract-peptone-glucose (YPD) medium (1% yeast extract, 2% peptone, and 2% glucose) and grown for 24 h at 30°C. The cultured cells were subcultured into yeast extract-peptone-galactose (YPGal) medium (1% yeast extract, 2% peptone, 2% galactose, and 0.1% glucose) and incubated overnight with continuous shaking at 30°C. When the optical density at 600 nm reached approximately 1.0, the cells were collected by centrifugation (3,000 × g at room temperature for 5 min). Intact mitochondria were isolated as per a previously described protocol ([35]) with minor modifications as follows. Yeast cells were converted to spheroplasts by incubation with Zymolyase-20T (Nacalai Tesque, Inc., Kyoto, Japan) (4 mg of Zymolyase-20T/g [wet weight] of cells) and disrupted using a Dounce homogenizer. The crude mitochondrial fraction was isolated by differential centrifugation ([35]). […]. The mitochondrial protein concentration was determined using the DC protein assay (Bio-Rad Laboratories, Inc., Hercules, CA, USA) following the manufacturer’s instructions. The mitochondrial stock solution was maintained on ice during the oxygen consumption experiment.
The mitochondrial oxygen consumption was measured using a phosphorescent oxygen-sensitive probe, MitoXpress-Xtra (Agilent Technologies, Santa Clara, CA, USA), as described previously ([16], [36]). Succinate was used as a respiratory substrate in this assay. […] A microplate reader, PHERAstar Plus (BMG Labtech GmbH, Ortenberg, Germany), was used to read. The time-resolved fluorescence protocol was set to read the plate at 1.5-min intervals for 60 min at an excitation wavelength of 337 nm, an emission wavelength of 665 nm, a delay time of 40 μs, and a gate time of 100 μs at 30°C.
[…]. […] For quantitative assessment, OCR was determined from the slope of the initial 7.5 min. OCR is expressed as micromolar of O2 per minute per milligram of protein.
The drug concentration was expressed as micromoles per milligram of protein. […]

[2] = molecular target: respiratory chain complex II + III (Bos taurus, UniProt P00125+P00157+P13272); test: MitoCheck complex II/III activity assay, bovine heart mitochondria; assay type: biochemical
Saccharomyces cerevisiae [3] = test: Intracellular ATP levels in yeast (luminescence assay); assay type: cell-based
Protocol: Intracellular ATP levels were measured using a previously described method with the following modifications ([25]). S. cerevisiae was grown overnight in a semisynthetic medium (per liter: 20 g of lactate, 0.5 g of glucose, 3 g of yeast extract, 1 g of KH2PO4, 1 g of NH4Cl, 0.5 g of CaCl2·2H2O, 0.5 g of NaCl, and 0.6 g of MgCl2·6H2O; adjusted to pH 5.5 with NaOH). The cells were harvested during the logarithmic-growth phase by centrifugation (3,000 × g at room temperature for 5 min). They were then washed and resuspended in distilled water. The suspension was diluted in a semisynthetic medium to yield 1 × 10^6 cells/ml. After 5 min of incubation at 30°C, T-2307 and antimycin A were added to the suspension. Further, the cells were incubated for 8 h at 30°C. Subsequently, the cells were collected by centrifugation (4,200 × g at 4°C for 5 min). After washes performed with phosphate-buffered saline (PBS; pH 7.2), the cells were resuspended in PBS and diluted to yield 1 × 10^6 cells/ml. ATP levels were measured using the BacTiter-Glo microbial cell viability assay (Promega, Madison, WI, USA), following the manufacturer’s instructions. Luminescence was measured using a microplate reader POLARstar Optima (BMG Labtech GmbH). To determine the viable cell counts, the cell suspension was diluted with PBS and spread on YPD agar. After a 2-day incubation at 30°C, colonies were counted. The intracellular ATP level is expressed as relative light units (RLU)/CFU.

Saccharomyces cerevisiae [4] = test: MIC determination, broth microdilution in semisynthetic medium; assay type: cell-based
Protocol: MIC was determined using the broth microdilution method based on the Clinical and Laboratory Standards Institute method with the following minor modifications ([38]). The medium used for MIC determination was semisynthetic medium, which was used for the measurement of intracellular ATP levels as described above. […].

S. cerevisiae cells = test: Accumulation of T-2307 in S. cerevisiae cells; assay type: cell-based, Saccharomyces cerevisiae

## N=C(N)c1ccc(OCCCC2CCN(CCCOc3ccc(C(=N)N)cc3)CC2)cc1 [T-2307]
Whole yeast cells
  effect on oxygen consumption in whole yeast cells: dose-dependent inhibition of respiration
[1]
  effect on mitochondrial oxygen consumption rate (OCR): dose-dependent decrease
[2]
  IC50 for complexes II plus III in bovine heart mitochondria relative to yeast mitochondria: > 10 fold
[2]; bovine heart mitochondria, read-out: IC50 ± SD, Complex II + III
  IC50: > 3 mM
[2]; read-out: remaining enzymatic activity of complexes II plus III
  remaining activity at 3000 µM: 93%
Saccharomyces cerevisiae [3]
  concentration that significantly decreased intracellular ATP levels: ≥ 0.01 µM
  reduction in intracellular ATP level: ~80%
  reduction in intracellular ATP levels: > 50%
Saccharomyces cerevisiae [4]; 72 h
  MIC: 0.0068 µg/mL and 0.0156 µM
Saccharomyces cerevisiae [4]; read-out: growth inhibition
  inhibition at 0.125 µM: > 75%
S. cerevisiae cells
  concentration in cells relative to extracellular medium: approximately 6,000 fold
